Test results from a melting point compilation (Tetko et al.; mined from patent text by program, amines drawn as free bases though some values may be those of a salt).

SMILES | melting point [°C]
Cc1c(C(=O)Nc2ccc(N3CCC(N(CCO)CCO)CC3)c(C#N)c2)cnn1-c1ccc(Cl)cc1 | 230 to 233
CCOC(=O)Cc1ccc(Oc2ccc([N+](=O)[O-])cc2)cc1 | 70.5 to 73
Cc1ccccc1N(CN1C(=O)CSC1=O)C(=O)CCl | 133 to 136
COc1ccc2c(c1)C(=O)CC1C2C(O)CC2(C)C(O)CCC12 (stereo unspecified) | 113 to 114
Cc1ccc(C(=S)OCSC#N)cc1 | 55
COC(=O)CCCOc1cccc(CNC(=O)C2Cc3ccccc3N2S(=O)(=O)c2ccc(-c3cccc(C(F)(F)F)c3)cc2)c1 (stereo unspecified) | 50
COC(CN(C)C(=O)Nc1nnc(C(C)Oc2ccccc2)s1)OC (stereo unspecified) | 117 to 121
CC1(C)OC(=O)Nc2ccc(-c3ccc(N)nc3)cc21 | 257 to 259
N#Cc1cnn(-c2ccccn2)c1SCc1ccccc1 | 110 to 115
COc1ccccc1NC(=O)Nc1nc(N2CCOCC2)nc(N(CCC(=O)O)Cc2ccc(Cl)c(Cl)c2)n1 | 198 to 203
O=C(O)c1cccc(OCCCCCCc2cccc(OCc3ccccc3)c2OCc2ccccc2)c1 | 72
CCCCCCCCC1C=CC(Cc2ccc(C(=O)O)o2)=C2N=C3CCCCC3=C21 (stereo unspecified) | 152 to 155
CC(C)(C)OC(=O)NC(C)(COCc1ccccc1)C(=O)O (stereo unspecified) | 112 to 114
CC1Cc2ccc(Cl)cc2C(c2ccc([N+](=O)[O-])cc2)=NN1C(N)=O (stereo unspecified) | 223 to 234
NC(=O)NCC(C(=O)O)C(F)(F)F (stereo unspecified) | 149 to 150
CCOC(=O)c1c2n(c3c(F)c(N4CCC(NC(=O)OC(C)(C)C)C4)c(F)cc3c1=O)C(C)S2 (stereo unspecified) | 174 to 176
CC1(C)CCC(C)(C)c2cc(CCCn3cccn3)c(/C=C/c3ccc(C(=O)O)cc3)cc21 | 182
O=C(Oc1cccc2c(-c3ccccc3)c3cccc(OC(=O)c4ccccc4)c3c(OC(=O)c3ccccc3)c12)c1ccccc1 | 255
Cc1ccc(N2CCC3CCc4cnccc4C3=N2)cc1 (stereo unspecified) | 158 to 159
CCCc1nc(C(C)(C)O)c(C(=O)OCC)n1Cc1ccc(-c2ccccc2C(=O)OC(C)(C)C)cc1 | 90 to 91
CC(C)(C)NS(=O)(=O)c1sc([Si](C)(C)C)cc1C(F)=C(F)C(F)(F)F | 92 to 94
Nc1cccc2c1C(Cc1ccnc(F)c1)(Cc1ccnc(F)c1)c1ccccc1-2 | 182 to 184
CCC1c2cc(F)ccc2-c2ccccc2N1S(=O)(=O)c1ccc(OC(=O)CC(C)(C)C)cc1 (stereo unspecified) | 128
O=C(O)COc1cccc2c1CCc1sc(S(=O)(=O)C(c3cccc(F)c3)c3cccc(F)c3)nc1-2 | 213 to 214

SMILES | melting point [°C]
COc1ccc2[nH]cc(-c3cc4c(C#N)ccnc4[nH]3)c2c1 | 303 to 304
CCCc1[nH]c2cc(C(=O)OC)ccc2c1C(=O)COC | 127 to 129
Cc1cccc(NC(=O)CN2CCN(c3ccccc3[N+](=O)[O-])CC2)c1 | 172 to 175
CCOC(=O)c1c(CN2CCCCC2)nc2cc(OCC)c(OCC)cc2c1-c1ccc(OC)c(OC)c1 | 154 to 155
NC1=NS(=O)(=O)N=C1NCCCN(Cc1ccccc1)c1ccccn1 | 192 to 193
CCC1CCn2c(nc(-c3ccncc3)cc2=O)N1 (stereo unspecified) | 244 to 246
COc1cc2c(=O)n(CCCN3CCOCC3)c3c4ccccc4[nH]c(=O)c3c2cc1OC | 250 to 252
NS(=O)(=O)c1ccc(NC(=O)CNc2ccccc2)c(F)c1 | 197 to 198
COC(=O)CCCOc1cc(C(C)C)c2c(c1)S(=O)(=O)N(COC(=O)c1ccccc1)C2=O | 122 to 124
N#Cc1ccccc1F | 98 to 100
CC(C)(C)OC(=O)NCC(=O)Oc1cccc(-c2cn3c(n2)sc2ccccc23)c1 | 150
O=c1[nH]c(CCN2CCCC(O)C2)cc2ccccc12 (stereo unspecified) | 192 to 193
CC(C)(C)c1cc(-c2nn(Cc3cccc(C(F)(F)F)c3)c3ncccc23)cc(C(C)(C)C)c1O | 160 to 163
N#CCC(O)(c1ccc(Cl)cc1)c1ccc(-c2ccc(Br)cc2)cc1 (stereo unspecified) | 160 to 161
CC(C)(C)OC(=O)NC(C)(C(=O)O)c1nc2ccccc2s1 (stereo unspecified) | 148 to 150
S=C(Nc1cccc(Cl)c1)N1CCCSC1c1ccc(Br)cc1 (stereo unspecified) | 144 to 146
Nc1nccc(Oc2ccc3c(c2)CCCN3)n1 | 180 to 182
N#Cc1ccc(COc2ccc3c(c2)CCNC3=O)cc1 | 158 to 160
Cc1c(NC(=O)c2ccc(OC[C@@H]3CCCO3)cc2F)ccc2c1cc(CNCC1CCOCC1)n2C | 149
Cn1c(=O)c(-c2ccc(Cl)cc2Cl)cc2c3cc(-c4ccno4)ccc3n(C)c21 | 241 to 242
O=C(OCC(Cl)(Cl)Cl)ON1C(=O)CCC1=O | 98 to 101
Cn1cc(-c2ccccc2)c(=O)c(-c2ccc(Cl)c(C(F)(F)F)c2)c1 | 154 to 155
CC(=O)OC1CCN2C(=O)N(c3ccc(C#N)c4ccccc34)C(=O)C12 (stereo unspecified) | 105
Clc1ccc(Cn2nncc2CN2CCC(c3ccccc3)(c3ccccc3)CC2)cc1 | 195

SMILES | melting point [°C]
Cn1c(=O)c2c(nc(N3CCC(NC(=O)OC(C)(C)C)C3)n2Cc2ccccc2Br)n(C)c1=O (stereo unspecified) | 104 to 106
N#Cc1cc(-c2ccncc2)sc1-c1ccncc1 | 205 to 207
N#Cc1ccc(-c2cn(-c3ccc(I)cc3)c(S)n2)cc1 | 285 to 290
CCC(=O)COc1ccc(CC2SC(=O)N(C(c3ccccc3)(c3ccccc3)c3ccccc3)C2=O)cc1 (stereo unspecified) | 155 to 156
CC1C(C(N)=O)CC2CC1C2(C)C (single isomer, unassigned; (+)) | 131
O=C(O)COCCc1ccccc1 | 46 to 48
CC(=O)c1cnc2onc(C)c2c1Cl | 63
CCSc1ccc(-c2coc3ccc(-c4nnc(C)o4)nc23)cc1 | 174 to 175
CSc1cc(C(F)(F)F)cc(Cl)c1-n1c(Br)nc(Cl)c1S(=O)(=O)C(F)F | 116
O=C(c1cc(C(F)(F)F)nc2c(Cl)cc(Cl)cc12)c1cc(C(F)(F)F)nc2c(Cl)cc(Cl)cc12 | 193 to 194
O=C(c1ccc(Br)cc1)c1ncccc1O | 94 to 95
CCN(CC)c1ccc2nc3c4ccccc4c(=Nc4ccc5ccccc5n4)cc-3oc2c1 | 234 to 236
COc1cc(OC)cc(C(=O)P2(=O)Oc3ccccc3-c3ccccc32)c1 (stereo unspecified) | 140 to 142
COc1cc2c(c3c1OC(C)(C)C3)C(c1cccc(NC(=O)C3CCC(=O)N3)c1)=NC(C)(C)C2 (stereo unspecified) | 145 to 147
COC(=O)CCC(=O)c1ccc2c(c1)CC(CCCCNC(C)=O)C2 (stereo unspecified) | 94 to 95
Cc1cc(O)n2ncc([N+](=O)[O-])c2n1 | 290
c1ccc2nc(N3CCNCC3)cnc2c1 | 74 to 76
O=C(N[C@H](Cc1ccc(C(F)(F)F)cc1)[C@@H](O)c1cccc(F)c1)c1ccc(F)c2ccccc12 (racemic) | 200 to 201
CN(C(=O)OC(C)(C)C)C1CCN(CC2(C)Cn3cc([N+](=O)[O-])nc3O2)CC1 (stereo unspecified) | 199 to 201
NC1C(=O)N(CC(O)C(F)(F)F)c2ccccc2-c2ccccc21 (stereo unspecified) | 192 to 194
C[C@H](CSC(=O)c1ccccc1)C(=O)N1C(=O)N(C)C[C@H]1C(=O)OC(C)(C)C | 128
COc1ccc(C(=O)Cc2c(Cl)cncc2Cl)c2c(CC(=O)OCc3ccccc3[N+](=O)[O-])coc12 | 200 to 201
N#CC(=NOCF)C(=N)NCl | 97 to 98
OCCc1ccc(Nc2ncc3c(n2)-c2ccccc2C(c2ccc(F)c(F)c2)C3)cc1 (stereo unspecified) | 170 to 172

SMILES | melting point [°C]
COC(=O)c1cccc(-c2nnc(-c3ccccc3N)cc2CCCO)c1 | 141
CC(C)c1cccc(C(C)C)c1NC(=O)Cc1ccccc1NCC(c1ccccc1)c1ccccc1 | 174 to 176
CN(C)c1ccc(/C=C/c2ccc(F)c(F)c2)cc1 | 159 to 160
CCN1C(=O)CCCc2c1ccc(Nc1ncc(Cl)c(Nc3ccc(N4CCOCC4)cc3OC)n1)c2OC | 210 to 212
CNC(=O)N=C(NC(=O)Nc1ccc(Cl)cc1)OC | 169 to 171
CCCN(CCC)CCCC1CCN(CCNC(=O)N2c3cc(Cl)ccc3C(=O)Nc3cccnc32)CC1 | 174 to 175
CS(=O)(=O)c1ccc(-c2[nH]nc3c2-c2ccccc2CC3)cc1 | 178 to 180
CCOC(=O)Cc1c(-c2ccc(Cl)cc2)nn2cc(Cl)cnc12 | 139 to 140
NC(=O)CNC(=S)Nc1ccccc1 | 150 to 152
CC(C)(C)C(=O)Oc1ccc(-c2nnn(C(C(=O)NCC(=O)O)c3ccccc3)n2)cc1 (stereo unspecified) | 86 to 93
CCOCCOc1ccc(-c2ccc3c(c2)C=C(C(=O)Nc2ccc(CN(C)C4CCOCC4)cc2)CCS3(=O)=O)cc1 | 215 to 217
O=c1c2cc(O)ccc2[nH]c2c([N+](=O)[O-])cc([N+](=O)[O-])c(Cl)c12 | 278 to 281
O=C(O)c1cn(C2CC2)c2c(F)c(N3CCOC(CN4CCCCC4)C3)c(F)cc2c1=O (stereo unspecified) | 160 to 162
CC(C)(C)N1CC(=O)Nc2ccc(Cl)cc2C1=O | 177 to 178
O=C(O)CCC(=O)c1ccc(CCNS(=O)(=O)c2ccc(Cl)cc2)cc1 | 152
COc1cc(C(=O)N(C(C)C)C2CCCCC2)ccc1Br | 104 to 107
O=C(c1cccnc1)c1cnc2c(cnn2Cc2ccco2)c1O | 152 to 153
COc1cc(Cl)cc(C)c1Nc1nc2c(Cl)ccc(C(=C(C)C)C(C)C)c2n1C | 166 to 168
Clc1ccc2nc3c(nc2c1)N1CCCCC1CO3 (stereo unspecified) | 147 to 149
Cc1nc2c(c(=O)[nH]1)CC(C)C2 (stereo unspecified) | 174 to 175
O=C(NCCN1CCOCC1)N1CCN2C(=O)OC(c3ccccc3)(c3ccccc3)C2C1 (stereo unspecified) | 174 to 175
Cc1ccc(S(=O)(=O)N(c2ccc(Cl)cc2C#N)C(C)C)cc1 | 130
CCOC(=O)CN(C)c1ccc(N=C=S)cc1 | 90 to 91
Cc1cc(-c2csc(-c3cccc(C(=O)O)c3)n2)c(C)s1 | 155 to 156
